In US10584124B2, “Crystalline forms” (Array BioPharma Inc., priority 2017, dated 2020) one finds XRPD post-cycling and XRPD post-stability data, which are given here for 13 molecules.

Each structure is given as a SMILES string.

The data set can be described thus: Primary salt screen of the compound of Formula II: XRPD post-cycling and post-stability (40° C., 75% RH overnight). It counts as physicochemical. The conditions noted are these: compound of Formula II + the acid given as label; for XRPD post-cycling: cycled RT/40° C. over 24 hours; for XRPD post-stability: 40° C. and 75% RH overnight. The procedure: The salt screen was performed as follows. […] In cases where stock solutions could not be attained, the acid was added neat to the solution of the compound of Formula II.
The samples were then temperature cycled between ambient (RT) and 40° C. in 4-hour cycles over 24 hours. Each mixture was filtered and isolated solids were analyzed (wet) by XRPD to determine crystallinity and form. Samples in which solid was not observed were stored uncapped to allow solvent evaporation. The remaining samples were placed in an oven at 40° C. and 75% RH overnight. The samples were then reanalyzed by XRPD to determine any changes in form or crystallinity. The observations and results, including the different diffractogram patterns observed during the screen, are shown in Tables 29-53, below, and FIGS. 24A-24B through 47A-47B.

`O=S(=O)(O)CCS(=O)(=O)O` [1,2-Ethane disulfonic acid]: the XRPD post-cycling entry is, setting by setting: (Acetone/water (10%)) “No solid”; (Dioxane/water (10%)) “No solid”; (EtOH/water (10%)) “No solid”; (IPA/water (10%)) “No solid”; (MeCN/water (20%)) “No solid”; (THF/water (1%)) “No solid”. Besides, the XRPD post-stability result is “No solid” (from Acetone/water (10%)); “No solid” (from Dioxane/water (10%)); “No solid” (from EtOH/water (10%)); “No solid” (from IPA/water (10%)); “No solid” (from MeCN/water (20%)); “No solid” (from THF/water (1%)).

For the molecule `O=S(=O)(O)CCO` [2-Hydroxy ethanesulfonic acid], the XRPD post-cycling entry reads like this: (Dioxane/water (10%)) “Form 7”; (EtOH/water (10%)) “Form 7”. The XRPD post-stability result by setting is: (from Dioxane/water (10%)) “Form 7”; (from EtOH/water (10%)) “Form 7”.

As to `O=S(=O)(O)c1ccccc1` [Benzene sulfonic acid], the XRPD post-cycling entry was “No solid” (Dioxane/water (10%)); “Form 2” (EtOH/water (10%)); “Form 2” (IPA/water (10%)); “No solid” (MeCN/water (20%)); “No solid” (THF/water (1%)). In addition, the XRPD post-stability result (from Dioxane/water (10%)) is recorded as “No solid”; the XRPD post-stability result (from EtOH/water (10%)) is “Form 2”; the XRPD post-stability entry (from IPA/water (10%)) is “Form 2”; the XRPD post-stability entry (from MeCN/water (20%)) is given as “No solid”; the XRPD post-stability entry (from THF/water (1%)) is recorded as “No solid”.

For `CCS(=O)(=O)O` [Ethane sulfonic acid], the XRPD post-cycling entry runs as follows: (Acetone/water (10%)) “No solid”; (Dioxane/water (10%)) “No solid”; (EtOH/water (10%)) “No solid”; (IPA/water (10%)) “Amorphous”; (MeCN/water (20%)) “No solid”; (THF/water (1%)) “No solid”. Besides, the XRPD post-stability entry runs as follows: (from Acetone/water (10%)) “No solid”; (from Dioxane/water (10%)) “No solid”; (from EtOH/water (10%)) “No solid”; (from IPA/water (10%)) “Amorphous”; (from MeCN/water (20%)) “No solid”; (from THF/water (1%)) “No solid”.

For the molecule `Cl` [Hydrochloric acid], the XRPD post-cycling result (Acetone/water (10%)) is “Form 2”; the XRPD post-cycling entry (Dioxane/water (10%)) is “Form 2”; the XRPD post-cycling entry (EtOH/water (10%)) was “Form 2”; the XRPD post-cycling result (IPA/water (10%)) is on record as “Form 2”; the XRPD post-cycling entry (MeCN/water (20%)) is recorded as “Form 2”; the XRPD post-cycling result (THF/water (1%)) was “Form 2”. Also, the XRPD post-stability entry (from Acetone/water (10%)) is listed as “Form 2”; the XRPD post-stability entry (from Dioxane/water (10%)) is listed as “Form 2”; the XRPD post-stability result (from EtOH/water (10%)) is recorded as “Form 2”; the XRPD post-stability entry (from IPA/water (10%)) is given as “Form 2”; the XRPD post-stability entry (from MeCN/water (20%)) is on record as “Form 2”; the XRPD post-stability entry (from THF/water (1%)) is given as “Form 2”.

Consider `N[C@@H](CC(=O)O)C(=O)O` [L-Aspartic acid], for which the XRPD post-cycling result runs as follows: (IPA/water (10%)) “Form 8”; (THF/water (1%)) “Form 8”. The XRPD post-stability entry is on record as “Form 14” (from Acetone/water (10%)), “Form 8” (from IPA/water (10%)), “Form 8” (from MeCN/water (20%)) and “Form 8” (from THF/water (1%)).

Regarding `O=C(O)/C=C\C(=O)O` [Maleic acid], the XRPD post-cycling result was “Amorphous” (Acetone/water (10%)); “No solid” (Dioxane/water (10%)); “Amorphous” (EtOH/water (10%)); “Amorphous” (IPA/water (10%)); “No solid” (MeCN/water (20%)). Further, the XRPD post-stability result is on record as “Amorphous” (from Acetone/water (10%)); “No solid” (from Dioxane/water (10%)); “Amorphous” (from EtOH/water (10%)); “Amorphous” (from IPA/water (10%)); “No solid” (from MeCN/water (20%)); “Form 15” (from THF/water (1%)).

On to `CS(=O)(=O)O` [Methane sulfonic acid], for which the XRPD post-cycling result is given as “Amorphous” (Acetone/water (10%)); “No solid” (Dioxane/water (10%)); “Amorphous” (EtOH/water (10%)); “Form 2” (IPA/water (10%)); “No solid” (MeCN/water (20%)); “No solid” (THF/water (1%)). Moreover, the XRPD post-stability entry by setting is: (from Acetone/water (10%)) “Amorphous”; (from Dioxane/water (10%)) “No solid”; (from EtOH/water (10%)) “Amorphous”; (from IPA/water (10%)) “Form 2”; (from MeCN/water (20%)) “No solid”; (from THF/water (1%)) “No solid”.

Turning to `O=S(=O)(O)c1ccc2ccccc2c1` [Naphthalene-2-sulfonic acid], the XRPD post-cycling entry (EtOH/water (10%)) is “Form 2” and the XRPD post-cycling entry (THF/water (1%)) was “Form 5”. In addition, the XRPD post-stability entry (from EtOH/water (10%)) is listed as “Form 2”.

Turning to `O=C(O)C(=O)O` [Oxalic acid], the XRPD post-cycling entry runs as follows: (Acetone/water (10%)) “Amorphous”; (Dioxane/water (10%)) “Form 6”; (EtOH/water (10%)) “Amorphous”; (IPA/water (10%)) “Amorphous”; (MeCN/water (20%)) “No solid”; (THF/water (1%)) “No solid”. For the same molecule, the XRPD post-stability result is, setting by setting: (from Dioxane/water (10%)) “Form 6”; (from EtOH/water (10%)) “Form 6”; (from IPA/water (10%)) “Form 6”; (from MeCN/water (20%)) “No solid”; (from THF/water (1%)) “No solid”.

Turning to `O=P(O)(O)O` [Phosphoric acid], the XRPD post-cycling result runs as follows: (Acetone/water (10%)) “Form 9”; (Dioxane/water (10%)) “No solid”; (IPA/water (10%)) “Form 10”; (MeCN/water (20%)) “No solid”; (THF/water (1%)) “Amorphous”. The XRPD post-stability entry by setting is: (from Dioxane/water (10%)) “No solid”; (from EtOH/water (10%)) “Form 10”; (from IPA/water (10%)) “Form 10”; (from MeCN/water (20%)) “No solid”; (from THF/water (1%)) “Form 10”.

On to `O=S(=O)(O)O` [Sulfuric acid], for which the XRPD post-cycling entry (Acetone/water (10%)) is “No solid”; the XRPD post-cycling entry (Dioxane/water (10%)) is given as “No solid”; the XRPD post-cycling entry (EtOH/water (10%)) is listed as “No solid”; the XRPD post-cycling result (IPA/water (10%)) was “Form 3”; the XRPD post-cycling result (MeCN/water (20%)) is “No solid”; the XRPD post-cycling entry (THF/water (1%)) was “No solid”. Moreover, the XRPD post-stability entry is listed as “No solid” (from Acetone/water (10%)); “No solid” (from Dioxane/water (10%)); “No solid” (from EtOH/water (10%)); “Form 5” (from IPA/water (10%)); “No solid” (from MeCN/water (20%)); “No solid” (from THF/water (1%)).

In the case of `Cc1ccc(S(=O)(=O)O)cc1` [p-Toluene sulfonic acid], the XRPD post-cycling entry by setting is: (Acetone/water (10%)) “Form 4”; (Dioxane/water (10%)) “No solid”; (EtOH/water (10%)) “Amorphous”; (IPA/water (10%)) “Amorphous”; (MeCN/water (20%)) “No solid”. The XRPD post-stability entry reads like this: (from Acetone/water (10%)) “Form 4”; (from Dioxane/water (10%)) “No solid”; (from EtOH/water (10%)) “Amorphous”; (from IPA/water (10%)) “Form 4”; (from MeCN/water (20%)) “No solid”; (from THF/water (1%)) “Form 4”.
